Experimental data reported in patent US12194039B2, “Methods of treating heart failure by administering omecamtiv mecarbil” (Cytokinetics, Inc., priority 2020, dated 2025).
Where two headings read alike, the source gives them in different places.

System: patients with HFrEF by ejection fraction quartile
Assay type: in vivo, human
Parameters: Change from baseline in KCCQ Total Symptom Score, least square mean / KCCQ Total Symptom Score Inpatient, Treatment Difference, least squares mean / KCCQ Total Symptom Score Outpatient, Treatment Difference, least squares mean / KCCQ Total Symptom Score, Treatment Difference, least squares mean: scale not given here
Settings: for Troponin I (Ratio) / Troponin I, Treatment Difference (95% CI) / Creatinine, Treatment Difference / Heart rate, Treatment Difference / KCCQ Total Symptom Score, Treatment Difference, least squares mean / NT-proBNP (Ratio) / Potassium, Treatment Difference / Systolic BP, Treatment Difference / KCCQ Total Symptom Score Inpatient, Treatment Difference, least squares mean / KCCQ Total Symptom Score Outpatient, Treatment Difference, least squares mean: baseline to Week 24; for Change from baseline in KCCQ Total Symptom Score, least square mean: Week 24
Protocol: Continuous variables were summarized via means and standard deviations or medians and interquartile ranges, as appropriate. Categorical variables are summarized with counts and percentages. Tests of trend across categories were conducted via linear regression, Cuzick's non-parametric trend test, and Chi-squared tests of trend, respectively. Treatment effects on continuous outcomes were assessed via linear regression models adjusted for the corresponding baseline value of the parameter of interest. Survival analyses were conducted using Poisson regression models to estimate incidence rates, rate differences, and rate ratios and Cox proportional hazards models to estimate hazard ratios. […] To allow for potentially non-linear associations between ejection fraction and time-to-event outcomes, restricted cubic splines were utilized in the Poisson regression models with 3 knots. All analyses were conducted using STATA 16 (College Station, Tex.). P-values <0.05 were considered statistically significant. Due to the exploratory nature of these analyses, no adjustments were made for multiple comparisons.
Within each randomization setting subgroup least squares mean is from the mixed model which includes baseline total symptom score value, region, baseline eGFR, scheduled visit, treatment group and interaction of treatment with scheduled visit as covariates. Influence of Ejection Fraction on the Treatment Effect of Omecamtiv Mecarbil

Structure (SMILES): COC(=O)N1CCN(Cc2cccc(NC(=O)Nc3ccc(C)nc3)c2F)CC1 [omecamtiv mecarbil]
- Troponin I (Ratio) (EF 29-32%, vs placebo): 1.27
- Troponin I, Treatment Difference (95% CI) (EF 29-32%, vs placebo): 4 (3, 5) ng/L
- Adjudicated First Major Cardiac Ischemic Events, % (EF 33%, OM group): 6.5%
- Adjudicated First Stroke, % (EF 33%, OM group): 1.8%
- Adverse Event: Ventricular Tachyarrhythmia, % (EF 33%, OM group): 6.4%
- Any treatment Emergent Serious Adverse Events, % (EF 33%, OM group): (55.5%)
- Positively Adjudicated Myocardial Infarction, % (EF 33%, OM group): 3.8%
- Serious Adverse Event: Ventricular Arrhythmia Requiring Treatment, % (EF 33%, OM group): 2.5%
- Adjudicated First Major Cardiac Ischemic Events, Relative Risk (EF 33%, OM vs placebo): 0.99
- Adjudicated First Stroke, Relative Risk (EF 33%, OM vs placebo): 0.77
- Adverse Event: Ventricular Tachyarrhythmia, Relative Risk (EF 33%, OM vs placebo): 0.88
- Any treatment Emergent Serious Adverse Events, Relative Risk (EF 33%, OM vs placebo): 1.02
- Positively Adjudicated Myocardial Infarction, Relative Risk (EF 33%, OM vs placebo): 1.02
- Serious Adverse Event: Ventricular Arrhythmia Requiring Treatment, Relative Risk (EF 33%, OM vs placebo): 1.11
- 1st HF Hospitalization (%) (EF ≤22%, OM group): (30%)
- 1st HF Hospitalization Rate (EF ≤22%, OM group): 20.9 per 100 patient years
- 1st HF Hospitalization n/N (EF ≤22%, OM group): 340/1127
- First HF Event (%) (EF ≤22%, OM group): (31%)
- First HF Event Rate (EF ≤22%, OM group): 21.7 per 100 patient years
- First HF Event n/N (EF ≤22%, OM group): 351/1127
- Primary Outcome (%) (EF ≤22%, OM group): (41%)
- Primary Outcome Rate (EF ≤22%, OM group): 28.3 per 100 patient years
- Primary Outcome n/N (EF ≤22%, OM group): 457/1127
- Total HF Events, Events (EF ≤22%, OM group): 719
- Total HF Events, Rate (EF ≤22%, OM group): 37.1 per 100 pt-yrs
- Total HF Hospitalizations, Events (EF ≤22%, OM group): 679
- Total HF Hospitalizations, Rate (EF ≤22%, OM group): 35.1 per 100 pt-yrs
- 1st HF Hospitalization ARR (EF ≤22%, OM vs placebo): 6.1 per 100 patient years
- 1st HF Hospitalization HR (95% CI) (EF ≤22%, OM vs placebo): 0.82 (0.71, 0.94)
- First HF Event ARR (EF ≤22%, OM vs placebo): 6.6 per 100 patient years
- First HF Event HR (95% CI) (EF ≤22%, OM vs placebo): 0.81 (0.70, 0.93)
- Primary Outcome ARR (EF ≤22%, OM vs placebo): 7.4 per 100 patient years
- Primary Outcome HR (95% CI) (EF ≤22%, OM vs placebo): 0.83 (0.73, 0.95)
- Total HF Events, ARR (EF ≤22%, OM vs placebo): 11.3 per 100 pt-yrs
- Total HF Events, Ratio (95% CI) (EF ≤22%, OM vs placebo): 0.83 (0.70, 1.01)
- Total HF Hospitalizations, ARR (EF ≤22%, OM vs placebo): 9.9 per 100 pt-yrs
- Total HF Hospitalizations, Ratio (95% CI) (EF ≤22%, OM vs placebo): 0.84 (0.70, 1.01)
- Creatinine, Treatment Difference (EF ≤22%, vs placebo): -0.01 mg/dL
- Heart rate, Treatment Difference (EF ≤22%, vs placebo): −1.6 bpm
- KCCQ Total Symptom Score, Treatment Difference, least squares mean (EF ≤22%, vs placebo): +1.6
- NT-proBNP (Ratio) (EF ≤22%, vs placebo): 0.78
- Potassium, Treatment Difference (EF ≤22%, vs placebo): 0.01 mmol/L
- Systolic BP, Treatment Difference (EF ≤22%, vs placebo): 0.9 mmHg
- Troponin I (Ratio) (EF ≤22%, vs placebo): 1.19
- Troponin I, Treatment Difference (95% CI) (EF ≤22%, vs placebo): 5 (4, 6) ng/L
- 1st HF Hospitalization (%) (EF ≥33%, OM group): 26%
- 1st HF Hospitalization Rate (EF ≥33%, OM group): 15.5 per 100 patient years
- 1st HF Hospitalization n/N (EF ≥33%, OM group): 228/892
- All-cause Death (%) (EF ≥33%, OM group): 22%
- All-cause Death Rate (EF ≥33%, OM group): 11.8 per 100 patient years
- All-cause Death n/N (EF ≥33%, OM group): 200/892
- First HF Event (%) (EF ≥33%, OM group): 26%
- First HF Event Rate (EF ≥33%, OM group): 16.2 per 100 patient years
- First HF Event n/N (EF ≥33%, OM group): 236/892
- Primary Outcome (%) (EF ≥33%, OM group): 33%
- Primary Outcome Rate (EF ≥33%, OM group): 20.5 per 100 patient years
- Primary Outcome n/N (EF ≥33%, OM group): 298/892
- Total HF Events, Events (EF ≥33%, OM group): 483
- Total HF Events, Rate (EF ≥33%, OM group): 28.5 per 100 pt-yrs
- Total HF Hospitalizations, Events (EF ≥33%, OM group): 449
- Total HF Hospitalizations, Rate (EF ≥33%, OM group): 26.5 per 100 pt-yrs
- 1st HF Hospitalization ARR (EF ≥33%, OM vs placebo): −1.2 per 100 patient years
- 1st HF Hospitalization HR (95% CI) (EF ≥33%, OM vs placebo): 1.03 (0.85, 1.24)
- All-cause Death ARR (EF ≥33%, OM vs placebo): −0.1 per 100 patient years
- All-cause Death HR (95% CI) (EF ≥33%, OM vs placebo): 0.98 (0.80, 1.20)
- First HF Event ARR (EF ≥33%, OM vs placebo): −1.3 per 100 patient years
- First HF Event HR (95% CI) (EF ≥33%, OM vs placebo): 1.04 (0.86, 1.25)
- Primary Outcome ARR (EF ≥33%, OM vs placebo): −0.4 per 100 patient years
- Primary Outcome HR (95% CI) (EF ≥33%, OM vs placebo): 0.99 (0.84, 1.16)
- Total HF Events, ARR (EF ≥33%, OM vs placebo): −4.7 per 100 pt-yrs
- Total HF Events, Ratio (95% CI) (EF ≥33%, OM vs placebo): 1.13 (0.90, 1.43)
- Total HF Hospitalizations, ARR (EF ≥33%, OM vs placebo): −3.6 per 100 pt-yrs
- Total HF Hospitalizations, Ratio (95% CI) (EF ≥33%, OM vs placebo): 1.12 (0.89, 1.43)
- Creatinine, Treatment Difference (EF ≥33%, vs placebo): 0.02 mg/dL
- Heart rate, Treatment Difference (EF ≥33%, vs placebo): −1.1 bpm
- KCCQ Total Symptom Score, Treatment Difference, least squares mean (EF ≥33%, vs placebo): −1.0
- NT-proBNP (Ratio) (EF ≥33%, vs placebo): 0.97
- Potassium, Treatment Difference (EF ≥33%, vs placebo): 0.02 mmol/L
- Systolic BP, Treatment Difference (EF ≥33%, vs placebo): −1.2 mmHg
- Troponin I (Ratio) (EF ≥33%, vs placebo): 1.27
- Troponin I, Treatment Difference (95% CI) (EF ≥33%, vs placebo): 3 (2, 4) ng/L
- Change from baseline in KCCQ Total Symptom Score, least square mean (Inpatient, EF 23-28%): 21.51
- KCCQ Total Symptom Score Inpatient, Treatment Difference, least squares mean (Inpatient, EF 23-28%, vs placebo): +0.2
- Change from baseline in KCCQ Total Symptom Score, least square mean (Inpatient, EF 29-32%): 22.34
- KCCQ Total Symptom Score Inpatient, Treatment Difference, least squares mean (Inpatient, EF 29-32%, vs placebo): +4.8
- Change from baseline in KCCQ Total Symptom Score, least square mean (Inpatient, EF ≤22%): 27.70
- KCCQ Total Symptom Score Inpatient, Treatment Difference, least squares mean (Inpatient, EF ≤22%, vs placebo): +4.9
- Change from baseline in KCCQ Total Symptom Score, least square mean (Inpatient, EF ≥33%): 22.09
- KCCQ Total Symptom Score Inpatient, Treatment Difference, least squares mean (Inpatient, EF ≥33%, vs placebo): −0.0
- Change from baseline in KCCQ Total Symptom Score, least square mean (Outpatient, EF 23-28%): 5.61
- KCCQ Total Symptom Score Outpatient, Treatment Difference, least squares mean (Outpatient, EF 23-28%, vs placebo): −0.6
- Change from baseline in KCCQ Total Symptom Score, least square mean (Outpatient, EF 29-32%): 5.30
- KCCQ Total Symptom Score Outpatient, Treatment Difference, least squares mean (Outpatient, EF 29-32%, vs placebo): −0.8
- Change from baseline in KCCQ Total Symptom Score, least square mean (Outpatient, EF ≤22%): 7.08
- KCCQ Total Symptom Score Outpatient, Treatment Difference, least squares mean (Outpatient, EF ≤22%, vs placebo): +0.7
- Change from baseline in KCCQ Total Symptom Score, least square mean (Outpatient, EF ≥33%): 5.18
- KCCQ Total Symptom Score Outpatient, Treatment Difference, least squares mean (Outpatient, EF ≥33%, vs placebo): −1.5
- Increase in troponin I, median (across the EF quartiles, limit of detection 6 ng/L, upper reference limit 40 ng/L): 3 to 5 ng/L
- Incidence of adverse events, omecamtiv mecarbil vs placebo (by EF quartile, result in words): no significant differences
- Effect on symptoms as assessed by the KCCQ-TSS as a function of EF (inpatient or outpatient settings, result in words): no consistent beneficial effect
- Absolute risk reduction, primary composite endpoint (lowest ejection fraction quartile): 7.4 events per 100 patient-years
- Relative risk reduction, primary composite endpoint (lowest ejection fraction quartile (EF ≤22%)): 17%
- Number-needed-to-treat to prevent an event (over 3 years, lowest ejection fraction quartile): 11.8
- Effect on cardiovascular death (overall population and as a function of baseline ejection fraction, result in words): no overall effect
- Primary endpoint, hazard ratio (patients with EF ≤28%, vs placebo): 0.84
- Primary endpoint, hazard ratio (patients with EF>28%, vs placebo): 1.04
- Reduction in time-to-first heart failure event or cardiovascular death (primary endpoint) (patients with ejection fraction ≤28% (below the median)): 16%
- Effect on all-cause mortality (result in words): no effect
- Relative risk reduction, primary composite endpoint (second lowest ejection fraction quartile (EF 23-28%)): 15%
- Incidence of adjudicated stroke (vs placebo, result in words): apparent reduction
- Change of NT-proBNP (week 24, highest EF quartile): 3%
- Reduction of NT-proBNP (week 24, lowest EF quartile (≤22%)): 22%
